The source of these data is US6841546B2, “Substituted tetracycline compounds as antifungal agents” (Paratek Pharmaceuticals, Inc., priority 2001, dated 2005).

Bounds are passed on as bounds.

A short description of the series: Mammalian Cytotoxicity Assay (Resazurin). It counts as cell-based. The following applies: African green monkey (COS-1) and Chinese hamster (CHO). On the procedure: COS-1 and CHO cell suspensions are prepared, seeded into 96-well tissue culture treated black-walled microtiter plates (density determined by cell line), and incubated overnight at 37° C., in 5% CO2 and approximately 95% humidity. The following day serial dilutions of drug are prepared under sterile conditions and transferred to cell plates. Cell/Drug plates are incubated under the above conditions for 24 hours. Following the incubation period, media/drug is aspirated and 50 μl of Resazurin is added. Plates are then incubated under the above conditions for 2 hours and then in the dark at room temperature for an additional 30 minutes. Fluorescence measurements are taken (excitation 535 nm, emission 590 nm). The IC50 (concentration of drug causing 50% growth inhibition) is then calculated.
(In general: Resazurin is reduced to fluorescent resorufin, in cell work by metabolically active cells.)

The molecule `CN(C)c1ccc(O)c2c1C[C@H]1C[C@H]3[C@H](N(C)C)C(O)=C(C(N)=O)C(=O)[C@@]3(O)C(O)=C1C2=O` [minocycline] showed an IC50 at 24 h of more than 25 µg/mL.

Regarding `C[C@H]1c2cccc(O)c2C(=O)C2=C(O)[C@]3(O)C(=O)C(C(N)=O)=C(O)[C@@H](N(C)C)[C@@H]3[C@@H](O)[C@@H]21` [doxycycline], the IC50 at 24 h was more than 25 µg/mL.

The IC50 is the midpoint of a concentration-inhibition curve.
